Results as given in the CheMixHub drug solubility set.

Experiment: xn = mol fraction of the nth substance listed, in the solute-free solvent

NC(N)=C([N+](=O)[O-])[N+](=O)[O-] + CS(C)=O + CC(=O)CC(C)C
solubility (g/100 g solution)
Conditions | 293.15 K | 298.15 K | 303.15 K | 308.15 K | 313.15 K | 318.15 K | 323.15 K | 328.15 K | 333.15 K
x2 = 0.1634 | 1.9 | 1.97 | 2.1 | 2.25 | 2.41 | 2.57 | 2.74 | 2.92 | 3.13
x2 = 0.3054 | 5.11 | 5.4 | 5.7 | 5.99 | 6.28 | 6.6 | 6.95 | 7.29 | 7.68
x2 = 0.4297 | 9.16 | 9.64 | 10 | 10.4 | 10.8 | 11.2 | 11.7 | 12.2 | 12.7
x2 = 0.5397 | 13.1 | 13.7 | 14.2 | 14.6 | 15.1 | 15.6 | 16.1 | 16.7 | 17.2
x2 = 0.6375 | 17 | 17.6 | 18.1 | 18.6 | 19 | 19.6 | 20.1 | 20.7 | 21.3
x2 = 0.7251 | 20.2 | 21 | 21.5 | 21.9 | 22.5 | 23.1 | 23.7 | 24.3 | 25
x2 = 0.804 | 23.2 | 23.8 | 24.3 | 24.8 | 25.3 | 25.9 | 26.6 | 27.2 | 27.8
x2 = 0.8755 | 25.6 | 26.3 | 26.8 | 27.2 | 27.8 | 28.4 | 28.9 | 29.6 | 30.2
x2 = 0.9406 | 27.4 | 28.5 | 29 | 29.5 | 30.1 | 30.6 | 31.2 | 31.8 | 32.4

Nc1ncn(C2OC(CO)C(O)C2O)c(=O)n1 (configuration not stated) + O + CO
solubility (g/100 g solution)
Conditions | 278.15 K | 283.15 K | 288.15 K | 293.15 K | 298.15 K | 303.15 K | 308.15 K | 313.15 K | 318.15 K
x2 = 0.3077 | 0.0966 | 0.113 | 0.129 | 0.148 | 0.169 | 0.194 | 0.228 | 0.273 | 0.324
x2 = 0.5424 | 0.198 | 0.229 | 0.265 | 0.307 | 0.359 | 0.419 | 0.491 | 0.575 | 0.673
x2 = 0.7273 | 0.335 | 0.397 | 0.463 | 0.542 | 0.632 | 0.742 | 0.869 | 1 | 1.14
x2 = 0.8767 | 0.521 | 0.634 | 0.758 | 0.888 | 1.02 | 1.17 | 1.34 | 1.52 | 1.71

Nc1cccc2c1CN(C1CCC(=O)NC1=O)C2=O (configuration not stated) + CC#N + CC(C)O
solubility (g/100 g solution)
Conditions | 273.15 K | 278.15 K | 283.15 K | 288.15 K | 293.15 K | 298.15 K | 303.15 K | 308.15 K | 313.15 K | 318.15 K
x2 = 0.2679 | 0.218 | 0.231 | 0.251 | 0.274 | 0.304 | 0.339 | 0.373 | 0.411 | 0.451 | 0.494
x2 = 0.4939 | 0.278 | 0.304 | 0.339 | 0.374 | 0.415 | 0.459 | 0.511 | 0.569 | 0.627 | 0.694
x2 = 0.6871 | 0.349 | 0.383 | 0.42 | 0.463 | 0.503 | 0.55 | 0.602 | 0.666 | 0.732 | 0.802
x2 = 0.8541 | 0.363 | 0.393 | 0.428 | 0.464 | 0.506 | 0.552 | 0.609 | 0.666 | 0.744 | 0.82

CC(C)C(=O)Nc1ccc([N+](=O)[O-])c(C(F)(F)F)c1 + CCOC(C)=O + CC(C)O
solubility (g/100 g solution)
Conditions | 278.15 K | 283.15 K | 288.15 K | 293.15 K | 298.15 K | 303.15 K | 308.15 K | 313.15 K | 318.15 K | 323.15 K
x2 = 0.1 | 19.4 | 22.7 | 26.3 | 30.2 | 33.9 | 38.7 | 43.5 | 48.3 | 53 | 57.4
x2 = 0.2 | 28.6 | 30.8 | 33.4 | 36.8 | 40.7 | 44.4 | 48.2 | 51.8 | 55.6 | 59.2
x2 = 0.3 | 30.6 | 34.2 | 38 | 41.5 | 44.9 | 48.2 | 51.3 | 54.9 | 58.2 | 61.5
x2 = 0.4 | 32.7 | 36.3 | 39.5 | 42.8 | 45.9 | 49 | 52.5 | 55.8 | 58.7 | 61.9
x2 = 0.5 | 33.7 | 37.2 | 40.7 | 44 | 46.9 | 49.8 | 52.9 | 56.1 | 59.3 | 62.1
x2 = 0.6 | 34.3 | 38 | 41.5 | 44.7 | 47.6 | 50.4 | 53.3 | 56.4 | 59.4 | 62.5
x2 = 0.7 | 34.5 | 37.8 | 41 | 44.3 | 47.4 | 50.3 | 53.4 | 56.4 | 59.4 | 62.4
x2 = 0.8 | 34.2 | 37.7 | 41.3 | 44.7 | 47.8 | 50.9 | 53.6 | 56.7 | 59.8 | 62.9
x2 = 0.9 | 34.4 | 37.9 | 41.5 | 44.8 | 47.8 | 51.1 | 53.9 | 56.6 | 59.5 | 62.6

Cc1ccc(-c2cc(C(F)(F)F)nn2-c2ccc(S(N)(=O)=O)cc2)cc1 + CN1CCCC1=O + CCCO
solubility (g/100 g solution)
Conditions | x2 = 0.06311 | x2 = 0.1316 | x2 = 0.2062 | x2 = 0.2878 | x2 = 0.3774 | x2 = 0.4763 | x2 = 0.5858 | x2 = 0.708 | x2 = 0.8451
293.15 K | 5.07 | 5.58 | 6.56 | 6.91 | 7.25 | 9.83 | 11.2 | 13.6 | 16.9
298.15 K | 5.96 | 6.26 | 6.96 | 7.72 | 8.23 | 10.3 | 12.2 | 14.6 | 18
303.15 K | 6.68 | 7.1 | 7.85 | 8.74 | 9.16 | 11.9 | 13.4 | 16.3 | 19.6
308.15 K | 7.49 | 8.17 | 9.06 | 9.84 | 10 | 12.7 | 14.5 | 17.3 | 21.1
313.15 K | 8.6 | 9.28 | 9.59 | 10.3 | 10.6 | 13.5 | 15.8 | 19 | 22.6

CC(C)C(=O)Nc1ccc([N+](=O)[O-])c(C(F)(F)F)c1 + C1CCOC1 + CC(C)O
solubility (g/100 g solution)
Conditions | 278.15 K | 283.15 K | 288.15 K | 293.15 K | 298.15 K | 303.15 K | 308.15 K | 313.15 K | 318.15 K | 323.15 K
x2 = 0.1 | 22.2 | 24.2 | 27 | 30.4 | 34.3 | 39 | 43.5 | 47.9 | 52 | 56.1
x2 = 0.2 | 31.7 | 33.5 | 35.9 | 38.8 | 42.4 | 46.1 | 49.8 | 53.3 | 56.9 | 61
x2 = 0.3 | 36.9 | 40.3 | 43.7 | 47 | 50.5 | 53.9 | 57.1 | 60.3 | 63.6 | 66.8
x2 = 0.4 | 40.4 | 43.2 | 46.4 | 50.1 | 53.3 | 56.9 | 60.1 | 63.1 | 65.9 | 68.8
x2 = 0.5 | 43.9 | 46.5 | 49.6 | 52.6 | 55.8 | 59.1 | 62.3 | 65.3 | 68.1 | 70.9
x2 = 0.6 | 47.4 | 49.7 | 52.6 | 55.8 | 58.7 | 61.9 | 64.7 | 67.6 | 70.2 | 73.3
x2 = 0.7 | 50.4 | 51.9 | 54.7 | 57.8 | 61.2 | 64.4 | 67.1 | 70 | 72.6 | 75.4
x2 = 0.8 | 52.5 | 54.5 | 57.4 | 60.7 | 63.7 | 66.4 | 69 | 71.8 | 74.2 | 77.1
x2 = 0.9 | 55.2 | 57.1 | 59.7 | 62.6 | 65.8 | 68.7 | 71.3 | 73.7 | 75.9 | 78.2

Nc1cc(-c2ccncc2)c[nH]c1=O + OCCO + O
solubility (g/100 g solution)
Conditions | 278.15 K | 283.15 K | 288.15 K | 293.15 K | 298.15 K | 303.15 K | 308.15 K | 313.15 K | 318.15 K | 323.15 K
x2 = 0.03125 | 0.000969 | 0.00114 | 0.00136 | 0.0016 | 0.00188 | 0.00216 | 0.00248 | 0.00283 | 0.00323 | 0.00367
x2 = 0.06767 | 0.00136 | 0.0016 | 0.00191 | 0.00224 | 0.00262 | 0.00301 | 0.00345 | 0.00393 | 0.00447 | 0.00508
x2 = 0.1107 | 0.00187 | 0.00221 | 0.00263 | 0.0031 | 0.00358 | 0.00411 | 0.00469 | 0.00542 | 0.00618 | 0.00703
x2 = 0.1622 | 0.00264 | 0.00312 | 0.00368 | 0.00432 | 0.00505 | 0.00577 | 0.00658 | 0.00746 | 0.00845 | 0.00955
x2 = 0.225 | 0.0034 | 0.00407 | 0.00476 | 0.00562 | 0.00649 | 0.00751 | 0.00852 | 0.00976 | 0.0111 | 0.0126
x2 = 0.3034 | 0.00444 | 0.00524 | 0.00616 | 0.00725 | 0.00846 | 0.00962 | 0.0109 | 0.0124 | 0.014 | 0.0158
x2 = 0.4038 | 0.00528 | 0.00637 | 0.00751 | 0.00882 | 0.0103 | 0.0117 | 0.0131 | 0.0148 | 0.0168 | 0.0189
x2 = 0.5373 | 0.00588 | 0.00697 | 0.00817 | 0.00966 | 0.0113 | 0.0128 | 0.0146 | 0.0165 | 0.0186 | 0.021
x2 = 0.7232 | 0.00648 | 0.00764 | 0.00919 | 0.0108 | 0.0123 | 0.014 | 0.016 | 0.0178 | 0.0199 | 0.0224
